The text below walks through data of US12569554B2, “Triterpene saponin analogues” (priority 2017, dated 2026).

Series [1] has as its system mice. Description: Adacel pharm/tox study, serology with TiterQuil-1055 or QS-21. The note with it: for augmentation of antibody levels compared to immunization with Adacel alone: adjuvant given with Adacel. It is filed as in vivo. How it is done:
(§1) Adacel doses containing 1, 0.3, and 0.1 mcg of pertussis toxin per mouse were administered subcutaneously (SC, with no immunological adjuvant), using 2 vaccinations 4 weeks apart, resulting in a mean of 1,618 mcg, 898 mcg, and 107 mcg respectively of anti-PT antibody per ml of serum drawn 2 weeks after the second vaccination. The 0.1 mcg dose was indistinguishable from unvaccinated controls (96 mcg/ml). A 0.5 mcg dose of Adacel was selected for a pharmacology/toxicology (pharm/tox) study. The serological results for this study are summarized in FIG. 3 of the present application.
(§2) A pharm/tox study was conducted in 7 groups of 5 mice: 1) PBS alone, 2) 50 mcg TiterQuil-1055, 3) 20 mcg QS-21, 4) Adacel 2.5 mcg pertussis toxin (1/5 the human dose), 5) Adacel+QS-21 (20 mcg QS-21), 6) Adacel+TiterQuil-1055 (50 mcg), 7) Adacel+TiterQuil-1055 (50 mcg). Mice were vaccinated SC on days 1 and 15, weighed daily, and bled and sacrificed on day 22, except for group 7 which was sacrificed on day 29. […] Histopathology of 33 different tissues was performed on all mice. Detected abnormalities were restricted to the liver. […] This abnormality was short lived and was no detected in group 7, which was sacrificed one week after groups 1-6.

Series [2] is classed as in vivo, mice. The note with it: for body weight loss: 50 mcg TiterQuil-1055, 20 mcg QS-21. How it is done: as §1, §2
Series [3] has as its system mice. Description: Pilot pharmacology/toxicology study: blood chemistry, hematology, histopathology. The class given is in vivo. The note with it: 50 mcg TiterQuil-1055, 20 mcg QS-21, Adacel 2.5 mcg pertussis toxin, alone or combined; for changes in blood chemistry or hematology results: SC days 1 and 15; for liver histopathology, hepatocellular cytoplasmic vacuolization: SC days 1 and 15, sacrificed day 22. How it is done: as §2

Series [4] has as its system mice. Description: Engerix-B immunogenicity, anti-HBsAg antibody. The class given is in vivo.
Description: Experiments were conducted with Engerix-B (HBV adult vaccine) in groups of 10 mice. Initially 3 mcg, 1 mcg, 0.3 mcg, 0.1 mcg, and 0.03 mcg Engerix-B doses per mouse were tested.
The nature of series [5]: Engerix-B study, body weight. The class given is in vivo, mice.
A further series can be described thus: Hemolytic assay. The class given is cell-based.
A short description of series [6]: Companion toxicity study, body mass. To be noted: three days after immunization. The class given is in vivo, mice.
Description: (§3) Natural and synthetic QS-21 (SQS-21 or SAPONEX®) and a variety of analogs were tested for hemolytic activity.
A short description of a further series: Stability at 37° C. It is filed as physicochemical. To be noted: for degraded: after two weeks at 37° C.
For the next series, the system named is humans. To be noted: cited from earlier work.
Where [7] appears, read: groups of 5 mice, 2 weeks after second SC immunization.

Where two headings read alike, the source gives them in different places.

Description for Hemolytic assay: as §3
Description for Stability at 37° C.: as §3

Consider `CC1O[C@@H](OC2C(O)[C@@H](NC(=O)CCCCCCCCCCC(=O)O)C(CO)O[C@H]2OC(=O)[C@]23CCC(C)(C)CC2C2=CCC4C5(C)CC[C@H](O)C(C)(C=O)C5CCC4(C)C2(C)CC3O)C(O)C(O)[C@H]1O[C@@H]1OC[C@@H](O)C(O)C1O` (stereo partly shown) [Compound I-4], for which the “antibody levels 2 weeks later” value with mice [1] (Adacel with TiterQuil-1055, a further 2 weeks later) is reported as “further increased”. Also, the antibody levels with mice [1] (groups of 5 mice, 2 weeks after second SC immunization, Adacel alone or Adacel with TiterQuil-1055) was 52,344. Also, the “augmentation of antibody levels compared to immunization with Adacel alone” value in the series with mice [1] (setting [7]) was determined as 70 fold. Also, the weight loss entry in series [2] (50 mcg TiterQuil-1055, 20 mcg QS-21, Adacel 2.5 mcg pertussis toxin, alone or combined, SC days 1 and 15, weighed daily) is given as “no other mice”; in series [5] (30 mcg TiterQuil-1055 dose), “No weight loss”; in series [5] (100 mcg TiterQuil-1055 dose) it was 4%; in [5] (300 mcg TiterQuil-1055 dose) it was 5%. In addition, in [2], the body weight loss result is “No weight loss”. In the series on mice [3], the “changes in blood chemistry or hematology results” value is “No changes”. In addition, in the series on mice [3], the “liver histopathology, hepatocellular cytoplasmic vacuolization” value is “No changes at all”. Further, in the series on mice [4] (10 mcg TiterQuil-1055 mixed with 0.3 mcg Engerix-B), the serologic effect entry was “no serologic effect”. The “increase in antibody levels compared to Engerix-B alone” value is more than 6 fold in the series on mice [4] (30 mcg TiterQuil-1055 mixed with 0.3 mcg Engerix-B) and 5 fold with mice [4] (100 mcg TiterQuil-1055 mixed with 0.3 mcg Engerix-B). In addition, the “antibody response at higher adjuvant doses” value in the series with mice [4] (TiterQuil-1055 doses above 50 mcg per mouse) is on record as “Lack of antibody increase or decreasing responses”. Also, the hemolytic activity entry in the series “Hemolytic assay” is listed as “much lower or undetectable hemolytic activity”. For the same compound, in [6], the “body mass gained on average” value is listed as 5%. Besides, the degraded entry in the series “Stability at 37° C.” was “without detectable degradation”. In the series “Stability at 37° C.” (compared with QS-21), the stability result is recorded as “increased stability”.
Take QS-21 [reference compound]: in the series with mice [1] (setting [7]), the “augmentation of antibody levels compared to immunization with Adacel alone” value is recorded as 10 fold. Besides, in series [2], the body weight loss is given as 8-9%. In the series on mice [3], the “changes in blood chemistry or hematology results” value is “No changes” and the “liver histopathology, hepatocellular cytoplasmic vacuolization” value was “Mild vacuolar changes”. In addition, the hemolytic activity entry in “Hemolytic assay” is listed as “highly hemolytically active”. Also, in series [6] (20 mcg QS-21), the “body mass lost on average” value is listed as 8-10%. The same compound came in with a degraded in the series “Stability at 37° C.” of 20%. Also, the “tolerated dose in cancer patients” value in the series on humans (cancer patients, above it local and systemic side effects) is 100 to 150 µg. In addition, the “maximum dose for healthy patients” value in the series on humans (healthy patients) was approximately 50 µg. Besides, the “highest practical tolerable dose” value with humans (well (non-cancer) adult and child recipients) is 25 to 50 µg.
